From patent publication US12479804B2, “Herbicidal compounds” (SYNGENTA CROP PROTECTION AG, priority 2019, dated 2025)

What was measured:
Assay in all cases: Glasshouse herbicidal test, pre- and post-emergence, percentage damage to the plant
Type in all cases: in vivo
[1] = test system: Alopecurus myosuroides (ALOMY); settings: 250 g/h, evaluated after 13 days; for ALOMY POST percentage damage caused to the plant (five-point scale): post-emergence; for ALOMY PRE percentage damage caused to the plant (five-point scale): pre-emergence
Experimental: (§1) Seeds of a variety of test species are sown in standard soil in pots (Lolium perenne (LOLPE), Setaria faberi (SETFA), Alopecurus myosuroides (ALOMY), Echinochloa crus-galli (ECHCG), Avena fatua (AVEFA)). After cultivation for one day (pre-emergence) or after 8 days cultivation (post-emergence) under controlled conditions in a glasshouse (at 24/16° C., day/night; 14 hours light; 65% humidity), the plants are sprayed with an aqueous spray solution derived from the formulation of the technical active ingredient in acetone/water (50:50) solution containing 0.5% Tween 20 (polyoxyethelyene sorbitan monolaurate, CAS RN 9005-64-5). Compounds are applied at 250 g/h. The test plants are then grown in a glasshouse under controlled conditions in a glasshouse (at 24/16° C., day/night; 14 hours light; 65% humidity) and watered twice daily. After 13 days for pre and post-emergence, the test is evaluated for the percentage damage caused to the plant. The biological activities are shown in the following table on a five-point scale (5=80-100%; 4=60-79%; 3=40-59%; 2=20-39%; 1=0-19%).

Setaria faberi (SETFA) = settings: 250 g/h, evaluated after 13 days; for SETFA POST percentage damage caused to the plant (five-point scale): post-emergence; for SETFA PRE percentage damage caused to the plant (five-point scale): pre-emergence
Experimental: as §1

Lolium perenne (LOLPE) = settings: 250 g/h, evaluated after 13 days; for LOLPE POST percentage damage caused to the plant (five-point scale): post-emergence; for LOLPE PRE percentage damage caused to the plant (five-point scale): pre-emergence
Experimental: as §1

Avena fatua (AVEFA) = settings: 250 g/h, evaluated after 13 days; for AVEFA POST percentage damage caused to the plant (five-point scale): post-emergence; for AVEFA PRE percentage damage caused to the plant (five-point scale): pre-emergence
Experimental: as §1

[2] = test system: Echinochloa crus-galli (ECHCG); settings: 250 g/h, evaluated after 13 days; for ECHCG POST percentage damage caused to the plant (five-point scale): post-emergence; for ECHCG PRE percentage damage caused to the plant (five-point scale): pre-emergence
Experimental: as §1

SMILES | ALOMY POST percentage damage caused to the plant (five-point scale) [1] | ALOMY PRE percentage damage caused to the plant (five-point scale) [1] | SETFA POST percentage damage caused to the plant (five-point scale) (Setaria faberi (SETFA)) | SETFA PRE percentage damage caused to the plant (five-point scale) (Setaria faberi (SETFA)) | LOLPE POST percentage damage caused to the plant (five-point scale) (Lolium perenne (LOLPE)) | LOLPE PRE percentage damage caused to the plant (five-point scale) (Lolium perenne (LOLPE)) | AVEFA POST percentage damage caused to the plant (five-point scale) (Avena fatua (AVEFA)) | AVEFA PRE percentage damage caused to the plant (five-point scale) (Avena fatua (AVEFA)) | ECHCG POST percentage damage caused to the plant (five-point scale) [2] | ECHCG PRE percentage damage caused to the plant (five-point scale) [2]
CC#Cc1cc(C)c(C2C(=O)CC3(C=CN(C(=O)c4ccccn4)CC3)CC2=O)c(C)c1 (stereo not drawn) [Compound A48] | 5 (5=80-100%) | 5 (5=80-100%) | 5 (5=80-100%) | 5 (5=80-100%) | 5 (5=80-100%) | 5 (5=80-100%) | 5 (5=80-100%) | 5 (5=80-100%) | 5 (5=80-100%) | 5 (5=80-100%)
CC#Cc1cc(C)c(C2C(=O)CC3(C=CN(C(=O)CC#N)CC3)CC2=O)c(C)c1 (stereo not drawn) [Compound A51] | 5 (5=80-100%) | 5 (5=80-100%) | 5 (5=80-100%) | 5 (5=80-100%) | 5 (5=80-100%) | 5 (5=80-100%) | 5 (5=80-100%) | 5 (5=80-100%) | 5 (5=80-100%) | 5 (5=80-100%)
CC#Cc1cc(C)c(C2C(=O)CC3(CCN4C(=O)CCC4C3)CC2=O)c(C)c1 (stereo not drawn) [Compound A14] | 5 (5=80-100%) | 5 (5=80-100%) | 5 (5=80-100%) | 5 (5=80-100%) | 5 (5=80-100%) | 5 (5=80-100%) | 5 (5=80-100%) | 5 (5=80-100%) | 5 (5=80-100%) | 5 (5=80-100%)
CC#Cc1cc(C)c(C2C(=O)CC3(CCCN(C(=O)OC(C)(C)C)CC3)CC2=O)c(C)c1 (stereo not drawn) [Compound A6] | 5 (5=80-100%) | 4 (4=60-79%) | 5 (5=80-100%) | 5 (5=80-100%) | 5 (5=80-100%) | 5 (5=80-100%) | 4 (4=60-79%) | 4 (4=60-79%) | 5 (5=80-100%) | 5 (5=80-100%)
CC#Cc1cc(C)c(C2C(=O)CC3(C=CN(C(=O)COC(F)F)CC3)CC2=O)c(C)c1 (stereo not drawn) [Compound A50] | 5 (5=80-100%) | 5 (5=80-100%) | 5 (5=80-100%) | 5 (5=80-100%) | 5 (5=80-100%) | 5 (5=80-100%) | 5 (5=80-100%) | 5 (5=80-100%) | 5 (5=80-100%) | 5 (5=80-100%)
CC#Cc1cc(C)c(C2C(=O)CC3(C=CN(C(=O)NC(=O)c4ccccn4)CC3)CC2=O)c(C)c1 (stereo not drawn) [Compound A57] | 5 (5=80-100%) | 5 (5=80-100%) | 5 (5=80-100%) | 5 (5=80-100%) | 5 (5=80-100%) | 5 (5=80-100%) | 5 (5=80-100%) | 4 (4=60-79%) | 5 (5=80-100%) | 5 (5=80-100%)
CC#Cc1cc(C)c(C2C(=O)CC3(CCC(=O)N(CC(=O)OC)C3)CC2=O)c(C)c1 (stereo not drawn) [Compound A12] | 2 (2=20-39%) | 5 (5=80-100%) | 5 (5=80-100%) | 5 (5=80-100%) | 5 (5=80-100%) | 5 (5=80-100%) | 5 (5=80-100%) | 3 (3=40-59%) | 5 (5=80-100%) | 5 (5=80-100%)
CC#Cc1cc(C)c(C2C(=O)CC3(CCCN(S(=O)(=O)CC)CC3)CC2=O)c(C)c1 (stereo not drawn) [Compound A8] | 5 (5=80-100%) | 5 (5=80-100%) | 5 (5=80-100%) | 5 (5=80-100%) | 5 (5=80-100%) | 5 (5=80-100%) | 5 (5=80-100%) | 5 (5=80-100%) | 5 (5=80-100%) | 5 (5=80-100%)
CC#Cc1cc(C)c(C2C(=O)CC3(CCNC(=O)C3)CC2=O)c(C)c1 (stereo not drawn) [Compound A2] | 3 (3=40-59%) | 3 (3=40-59%) | 5 (5=80-100%) | 5 (5=80-100%) | 4 (4=60-79%) | 4 (4=60-79%) | 4 (4=60-79%) | 3 (3=40-59%) | 5 (5=80-100%) | 3 (3=40-59%)
CC#Cc1cc(C)c(C2C(=O)CC3(CCCN(C(C)=O)CC3)CC2=O)c(C)c1 (stereo not drawn) [Compound A9] | 5 (5=80-100%) | 5 (5=80-100%) | 5 (5=80-100%) | 5 (5=80-100%) | 5 (5=80-100%) | 5 (5=80-100%) | 5 (5=80-100%) | 5 (5=80-100%) | 5 (5=80-100%) | 5 (5=80-100%)
CC#Cc1cc(C)c(C2C(=O)CC3(CCC(=O)NC3)CC2=O)c(C)c1 (stereo not drawn) [Compound A10] | 5 (5=80-100%) | 5 (5=80-100%) | 5 (5=80-100%) | 5 (5=80-100%) | 5 (5=80-100%) | 5 (5=80-100%) | 5 (5=80-100%) | 5 (5=80-100%) | 5 (5=80-100%) | 5 (5=80-100%)
CC#Cc1cc(C)c(C2C(=O)CC3(C=CN(C(=O)NC(C)(C)C)CC3)CC2=O)c(C)c1 (stereo not drawn) [Compound A53] | 5 (5=80-100%) | 5 (5=80-100%) | 5 (5=80-100%) | 5 (5=80-100%) | 5 (5=80-100%) | 5 (5=80-100%) | 4 (4=60-79%) | 2 (2=20-39%) | 5 (5=80-100%) | 5 (5=80-100%)
